Numbering of substitutions follows the chain as printed. Entries after “also recorded” stand apart in the source; their conditions may differ. Read-outs that look alike come from different tables or passages of the source. Values belong to the molecule of their own block, whether it stands above or below them.
Columns and labels:
DLD1 cancer cells = experiment: Uptake of rhodamine-labeled variant 13 into live DLD1 cells; assay type: cell-based; conditions: 50 μM importazole
Description: Live DLD1 cancer cells were treated with control or rhodamine-labeled variant 13 (Rh-variant 13)+/−50 μM importazole and were then visualized under light and fluorescence microscopy.

DLD1 cells [1] = experiment: SLE sera nuclear import with nuclear import inhibitors; assay type: cell-based; conditions: pre- and co-treatment with inhibitor
Description: DLD1 cells were pre-treated with either control media, or media containing nuclear import inhibitors for four hours. Subsequent co-treatment with inhibitor and patient SLE serum (diluted 1:50) was performed for one hour at 37° C. Following treatment, cells were fixed, blocked and probed with an alkaline-phosphatase anti-human IgG primary antibody overnight (Fisher Scientific). Cell monolayers were washed, and color developed using NBT/BCIP reagent (Fisher Scientific) for the same duration across all experiments. Following chromogen color development, all monolayers were washed, and brightfield images acquired immediately on an Evos Fl microscope.

A549 lung cancer cells = experiment: Protein L immunostain of variant 13 nuclear penetration with nuclear import inhibitors, A549 cells; assay type: cell-based; conditions: 10 μM variant 13 co-incubated with 0, 10, 25, or 50 μM inhibitor
Description: (§1) For all experiments, cells were cultivated overnight to allow for attachment, followed by pretreatment with either control medium (absence of inhibitor), or medium containing inhibitor for durations previously-reported in the literature (see Table 1, below).
(§2) For endocytosis inhibition experiments, cells were cultivated in serum-free medium containing 1% v/v BSA to deplete endogenous serum levels. Following preincubation with inhibitors, cells were treated with either control medium or 10 μM variant 13, and the same dose of small molecule inhibitor for a further 30 minutes. For all experiments, cells were washed thrice, followed by immediate fixation with pre-chilled ice-cold ethanol. Subsequently, treated cells were probed using a protein L immunodetection approach to probe variant 13 nuclear uptake (Rattray et al., Biochem Biophys Res Commun 496, 858-864 (2018)). All monolayers were immediately imaged following color development on an Evos Fl microscope.
(§3) DLD-1 and A549 cells were treated with 10 μM variant 13 co-incubated with 0, 10, 25, or 50 μM concentrations of ivermectin. Relative intensity of protein L nuclear staining as compared to amount of stain in cells treated without ivermectin was also quantified by ImageJ.
(§4) DLD-1 cells and A549 cells were treated with 10 μM variant 13 co-incubated with 0, 10, 25, or 50 μM concentrations of importazole and then immunostained for protein L.
(§5) DLD-1 cells and A549 cells were treated with 10 μM variant 13 co-incubated with 0, 10, 25, or 50 μM concentrations of mifepristone and then immunostained for protein L.

DLD1 colon cancer cells = experiment: Protein L immunostain of variant 13 nuclear penetration with nuclear import inhibitors, DLD1 cells; assay type: cell-based; conditions: 10 μM variant 13 co-incubated with 0, 10, 25, or 50 μM inhibitor
Description: as §1, §2, §3, §4, §5

cell nuclei [2] = conditions: known anti-DNA autoantibodies; cited from earlier work
DLD1 cells [3] = experiment: Nuclear penetration of scleroderma autoantibody SSC and effect of ivermectin; assay type: cell-based
Description: In addition to SLE, cell-penetrating autoantibodies are detected in other autoimmune diseases such as scleroderma. […] SSC was expressed in and purified from HEK293T cells. […] Ivermectin inhibited the nuclear uptake of SSC, confirming that ivermectin can modulate the nuclear-penetrating activity of autoantibodies from multiple autoimmune diseases.

MCF7 breast cancer cells = experiment: Uptake of rhodamine-labeled variant 13 into live MCF7 cells; assay type: cell-based; conditions: 50 μM ivermectin
Description: Live MCF7 breast cancer cells were treated with control or rhodamine-labeled variant 13 (Rh-variant 13)+/−50 μM ivermectin and were then visualized under light and fluorescence microscopy. Ivermectin inhibited cellular/nuclear uptake of Rh-variant 13.

cell nuclei [4] = experiment: Nuclear penetration of humanized 3E10 variants compared with 3E10 (D31N) di-scFv; assay type: cell-based; conditions: for Nuclear localizing?: humanized 3E10 variants
Description: A range of humanized 3E10 variants were generated with subtle differences in framework and CDR sequences.

Importin-β1 (KPNB1) = biological target: T1, Importin-β1 (KPNB1) (Homo sapiens, UniProt Q14974); experiment: Variant 13 nuclear penetration after siRNA knockdown of importin β1 in DLD1 cells; assay type: cell-based; conditions: 10 μM variant 13 for 30 minutes, n=100 cells per treatment
T1 construct: endogenous in cells; host or cells: DLD1 cells
Description: Importin-β1 (KPNB1) knockdown in DLD1 cells were generated using control (D-001206-14-05) and KPNB1 (importin β1, M-017523-01-0005) siRNA (Dharmacon). DLD1 cells were seeded into 24-well (western blot) or 96-well plates (cell penetration assays) overnight. Cell monolayers were transfected with siRNA, followed by media replacement at 24 hours, and evaluation at multiple time points post-transfection. Importin (31 expression was then evaluated by western blotting of cell lysates.
Knockdown of importin β1 in DLD1 cells by siRNA was next performed to further probe the role of this pathway in modulating variant 13 nuclear localization.

T1 sequence (Q14974 whole entry): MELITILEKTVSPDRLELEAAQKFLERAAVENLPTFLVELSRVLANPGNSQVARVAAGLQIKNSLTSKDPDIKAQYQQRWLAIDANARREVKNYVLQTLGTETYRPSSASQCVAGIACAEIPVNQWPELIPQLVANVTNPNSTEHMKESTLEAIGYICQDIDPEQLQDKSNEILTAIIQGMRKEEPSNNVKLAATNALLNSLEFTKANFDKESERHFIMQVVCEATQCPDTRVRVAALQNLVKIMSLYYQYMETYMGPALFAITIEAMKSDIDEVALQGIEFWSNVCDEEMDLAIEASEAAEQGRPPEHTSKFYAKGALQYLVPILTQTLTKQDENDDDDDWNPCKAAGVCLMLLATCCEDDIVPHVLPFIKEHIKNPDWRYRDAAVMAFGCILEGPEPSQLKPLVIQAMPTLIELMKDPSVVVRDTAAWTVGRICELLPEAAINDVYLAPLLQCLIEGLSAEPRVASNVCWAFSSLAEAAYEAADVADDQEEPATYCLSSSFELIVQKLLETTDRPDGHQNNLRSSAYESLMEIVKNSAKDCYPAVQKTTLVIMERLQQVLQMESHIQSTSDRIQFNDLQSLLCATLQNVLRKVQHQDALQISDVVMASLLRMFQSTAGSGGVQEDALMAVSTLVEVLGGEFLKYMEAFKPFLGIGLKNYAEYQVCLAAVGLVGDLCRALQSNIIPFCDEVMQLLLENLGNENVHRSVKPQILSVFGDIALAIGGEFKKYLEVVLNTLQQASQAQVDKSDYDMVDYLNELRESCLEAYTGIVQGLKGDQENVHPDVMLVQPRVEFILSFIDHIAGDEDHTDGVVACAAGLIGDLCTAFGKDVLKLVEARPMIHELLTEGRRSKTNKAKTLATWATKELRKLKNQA

Molecule: CC(Nc1nc(N2CCCC2)nc2ccccc12)c1ccccc1 (stereo not drawn) [importazole]
- nuclear uptake of rhodamine-labeled variant 13 (DLD1 cancer cells): inhibited
- nuclear uptake of ANAs in SLE-19 (DLD1 cells [1]): inhibit nuclear uptake of ANAs in SLE-19 in a dose-dependent manner
- nuclear penetration by variant 13 (A549 lung cancer cells): reduction
- nuclear penetration by variant 13 (DLD1 colon cancer cells): reduction

Molecule: 3E10: murine lupus anti-DNA monoclonal antibody produced by ATCC Accession No. PTA 2439 hybridoma [Variant 3E10]
- Nuclear localizing? (cell nuclei [2]): Yes

Molecule: CC#C[C@]1(O)CC[C@H]2[C@@H]3CCC4=CC(=O)CCC4=C3[C@@H](c3ccc(N(C)C)cc3)C[C@@]21C [mifepristone]
- nuclear uptake of ANAs in SLE-19 (DLD1 cells [1]): inhibit nuclear uptake of ANAs in SLE-19 in a dose-dependent manner
- nuclear penetration by variant 13 (A549 lung cancer cells): reduction
- nuclear penetration by variant 13 (DLD1 colon cancer cells): reduction

Molecule: ivermectin
- nuclear uptake of SSC (DLD1 cells [3]): inhibited
- nuclear staining / nuclear uptake of ANAs in SLE-4, 8, 9, and 19 (DLD1 cells [1]; serum diluted 1:50): reduced the nuclear staining; also recorded: blocked
- nuclear penetration by variant 13 (A549 lung cancer cells): dose-dependent reduction
- nuclear penetration by variant 13 (DLD1 colon cancer cells): dose-dependent reduction
- cellular/nuclear uptake of rhodamine-labeled variant 13 (MCF7 breast cancer cells): inhibited

B1: variant 10: humanized 3E10 variant, SEQ ID NOS: 14, 22, and 32 (protein)
chain 1: EVQLVESGGGLVQPGGSLRLSCAASGFTFSNYGMHWVRQAPGKGLEWVSYISSSSSTIYYADSVKGRFTISRDNAKNSLYLQMNSLRAEDTAVYYCARRGLLLDYWGQGTTVTVSS
chain 2: DIQMTQSPSSLSASVGDRVTITCRASKSVSTSSYSYMHWYQQKPGKAPKLLIKYASYLESGVPSRFSGSGSGTDFTLTISSLQPEDFATYYCQHSREFPWTFGQGTKVEIK
chain 3: DIQMTQSPSSLSASVGDRVTITCRASKSVSTSSYSYMHWYQQKPGKAPKLLIKYASYLESGVPSRFSGSGSGTDFTLTISSLQPEDFATYYCQHSREFPWTFGQGTKVEIKRADAAPGGGGSGGGGSGGGGSEVQLVESGGGLVQPGGSLRLSCAASGFTFSNYGMHWVRQAPGKGLEWVSYISSSSSTIYYADSVKGRFTISRDNAKNSLYLQMNSLRAEDTAVYYCARRGLLLDYWGQGTTVTVSSASTKGPSVFPLAPLESSGSDIQMTQSPSSLSASVGDRVTITCRASKSVSTSSYSYMHWYQQKPGKAPKLLIKYASYLESGVPSRFSGSGSGTDFTLTISSLQPEDFATYYCQHSREFPWTFGQGTKVEIKRADAAPGGGGSGGGGSGGGGSEVQLVESGGGLVQPGGSLRLSCAASGFTFSNYGMHWVRQAPGKGLEWVSYISSSSSTIYYADSVKGRFTISRDNAKNSLYLQMNSLRAEDTAVYYCARRGLLLDYWGQGTTVTVSS
- nuclear penetration compared to murine 3E10 (D31N) di-scFv prototype (cell nuclei [4]): penetrated nuclei very well
- Nuclear localizing? (cell nuclei [4]): Yes

- variant 13 nuclear signal in importin β1 knockdown cells compared to cells with intact importin β1 (Importin-β1 (KPNB1)): significant reduction
B2: variant 13: humanized 3E10 variant, SEQ ID NOS: 17, 23, and 35, expressed in CHO cells (protein)
chain 1: B1 chain 1 with S54G
chain 2: B1 chain 2 with V15L, V19A, S28T, K46Q, A47P, F87A, Q104G
chain 3: DIQMTQSPSSLSASLGDRATITCRASKTVSTSSYSYMHWYQQKPGQPPKLLIKYASYLESGVPSRFSGSGSGTDFTLTISSLQPEDAATYYCQHSREFPWTFGGGTKVEIKRADAAPGGGGSGGGGSGGGGSEVQLVESGGGLVQPGGSLRLSCAASGFTFSNYGMHWVRQAPGKGLEWVSYISSGSSTIYYADSVKGRFTISRDNAKNSLYLQMNSLRAEDTAVYYCARRGLLLDYWGQGTTVTVSSASTKGPSVFPLAPLESSGSDIQMTQSPSSLSASLGDRATITCRASKTVSTSSYSYMHWYQQKPGQPPKLLIKYASYLESGVPSRFSGSGSGTDFTLTISSLQPEDAATYYCQHSREFPWTFGGGTKVEIKRADAAPGGGGSGGGGSGGGGSEVQLVESGGGLVQPGGSLRLSCAASGFTFSNYGMHWVRQAPGKGLEWVSYISSGSSTIYYADSVKGRFTISRDNAKNSLYLQMNSLRAEDTAVYYCARRGLLLDYWGQGTTVTVSS
- nuclear penetration compared to murine 3E10 (D31N) di-scFv prototype (cell nuclei [4]): penetrated nuclei very well
- Nuclear localizing? (cell nuclei [4]): Yes

Reference: patent US12304970B2, “Nuclear localization signals, compositions formed therefrom, and methods of use thereof for delivery of cargo to the nucleus” (Yale University, priority 2018, dated 2025)
